Consider four compounds from US9546193B2, “Compositions and methods for 18F-fluorodeoxyglycosylamines” (The Regents of the University of California, priority 2013, dated 2017).

Where two headings read alike, the source gives them in different places.

Format in all cases: binding
Assay [1] deals with postmortem human brain Aβ-amyloid sites.
Excerpt: (§1) The brain sections were air dried, exposed overnight on a phosphor film, and then placed on the Phosphor Autoradiographic Imaging System/Cyclone Storage Phosphor System (Packard Instruments Co).
as §1

The test system of a further assay is Aβ-Amyloid plaques. The assay can be described thus: Human brain homogenate assay, displacement of 3H-PIB. Particulars: 3H-PIB displacement curve; rFDGBTA 10^−11 to 10^−4 M; PBS buffer, 10% alcohol, pH 7.4. On the procedure:
rFDGBTA: Reductive amination was carried out at room temperature using an anhydrous solution of molecular sieves, methanol and acetic acid. The yield for the reduced rFDGBTA was 94%. Human brain homogenate assay of rFDGBTA for Aβ-Amyloid plaques was investigated. The homogenate was suspended in different concentrations of rFDGBTA (10^−11 to 10^−4M) in the assay buffer (PBS buffer, 10% alcohol, pH 7.4). Nonspecific binding was determined by including […]. Total assay volume was 0.25 ml.

For another assay, the system named is human Aβ-amyloid plaques. As to the kind of experiment: 3H-PIB competition autoradiography on postmortem AD brain sections. The conditions noted are these: 10 μM competitor; postmortem AD human brain slices; preliminary studies. On the procedure:
^3H-PIB Binding: Human hippocampus sections (7 μm thick) were preincubated in 10% alcohol PBS buffer for 10 minutes. The brain sections were placed in a glass chamber and incubated with [^3H]-PIB (2 μCi/cc) in 10% alcohol PBS buffer, pH 7.4 at 37° C. for 1 hr. The slices were then washed with cold 10% alcohol PBS buffer (2×3 mins), cold deionized water 1 min, respectively. The brain sections were air dried, exposed overnight on a phosphor film, and then placed on the Phosphor Autoradiographic imaging System/Cyclone Storage Phosphor System (Packard Instruments Co). Regions of interest (ROIs) were drawn on the slices and the extent of binding of ^3H-PIB was measured with DLU/mm2 using the OptiQuant acquisition and analysis program (Packard Instruments Co).
Since FDGBTA is an analog of PIB, which is known to bind to human Aβ-amyloid plaques, the inventors tested competition of both PIB and FDGBTA with postmortem human brain Aβ-amyloid sites labeled with ^3H-PIB as is illustrated in Panel A of FIG. 5, with the corresponding photomicrographs in Panel B of FIG. 5.

As to 2-^18F-Fluorodeoxyglucose [18F-FDG], the “binding to AD brain grey matter / Aβ-amyloid plaques (in words)” value in assay [1] is “did not exhibit any binding”.

Regarding `OCC(O)C(O)C(O)C(F)CNc1ccc(-c2nc3ccc(O)cc3s2)cc1` (centres unmarked) [rFDGBTA], the “binding compared to PIB (times weaker)” value with Aβ-Amyloid plaques is given as around 100 times.

With `[11CH3]Nc1ccc(-c2nc3ccc(O)cc3s2)cc1` [11C-PIB], the “binding to AD brain grey matter / Aβ-amyloid plaques (in words)” value in assay [1] (postmortem AD human brain sections, autoradiography) is recorded as “significant binding”. The “ratio of binding, AD brain versus control subjects (grey matter)” value in assay [1] (postmortem human hippocampus sections, autoradiography) came out at 6.

For the compound `OCC1OC(Nc2ccc(-c3nc4ccc(O)cc4s3)cc2)C(F)C(O)C1O` (centres unmarked) [FDGBTA], the “reduction of 3H-PIB binding in the grey matter areas” value in the assay on human Aβ-amyloid plaques is 80%.
